The record followed here is patent publication US20050209278A1, “Piperidinyl- and piperazinyl-sulfonylmethyl hydroxamic acids and their use as protease inhibitors” (priority 2002, published 2005).

The target of the test is T1, MMP-1 (Homo sapiens, UniProt P03956).
T1 construct: made in house; host or cells: MMP-1-transfected HT-1080 cells (spent media)
T1 sequence (P03956 100-469): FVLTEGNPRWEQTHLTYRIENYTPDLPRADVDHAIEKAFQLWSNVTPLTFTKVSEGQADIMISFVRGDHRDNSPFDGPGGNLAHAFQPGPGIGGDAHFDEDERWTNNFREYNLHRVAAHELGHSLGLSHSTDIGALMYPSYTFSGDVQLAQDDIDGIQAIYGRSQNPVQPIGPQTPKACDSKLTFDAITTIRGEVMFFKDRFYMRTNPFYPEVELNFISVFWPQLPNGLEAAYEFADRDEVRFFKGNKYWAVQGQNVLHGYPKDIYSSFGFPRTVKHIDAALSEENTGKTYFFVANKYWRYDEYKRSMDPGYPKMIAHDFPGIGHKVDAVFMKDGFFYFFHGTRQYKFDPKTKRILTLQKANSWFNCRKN
Nature of the test: In vitro MMP inhibition, Ki determination (fluorogenic substrate II). The note with it: value not in parenthesis; read-out: MMP-1 Ki. In kind it is biochemical.
The term Ki denotes a measure of affinity in units of concentration, obtained from inhibition or displacement. With `CCCCOc1ccc(N2CCN(S(=O)(=O)C3(C(=O)NO)CCN(c4ccc(OC)c(OC)c4)CC3)CC2)cc1` [Example 229], the Ki is more than 10 µM.

On to `O=C(NO)C1(S(=O)(=O)N2CCN(c3ccc(Cl)nn3)CC2)CCOCC1` [Example 198], for which the Ki stood at 8.65 µM.

Take `CCCCOc1ccc(N2CCN(S(=O)(=O)C3(C(=O)NO)CCN(CCCC(F)(F)F)CC3)CC2)cc1` [Example 238]: the Ki is more than 10 µM.

As for `CCCCOc1ccc(N2CCN(S(=O)(=O)C3(C(=O)NO)CCN(c4ncccn4)CC3)CC2)cc1` [Example 159], the Ki is more than 10 µM.

Regarding `CCCCc1ccc(N2CCN(S(=O)(=O)C3(C(=O)NO)CCN(CCOC)CC3)CC2)cc1F` [Example 173], the inhibition constant (Ki) is more than 10 µM.

`COCCN1CCC(C(=O)NO)(S(=O)(=O)N2CCN(c3ccc(CCCCC(C)C)cc3)CC2)CC1` [Example 191]: the Ki is more than 10 µM.

In the case of `O=C(NO)C1(S(=O)(=O)N2CCN(c3cnc(CCC(F)(F)F)cn3)CC2)CCOCC1` [Example 218], the Ki is more than 10 µM.

`CCCCOc1ccc(N2CCN(S(=O)(=O)C3(C(=O)NO)CCN(c4nccs4)CC3)CC2)cc1` [Example 157]: the Ki was more than 10 µM.

As to `CCCCOc1ccc(N2CCN(S(=O)(=O)C3(C(=O)NO)CCN(C(=O)N4CCCCC4)CC3)CC2)cc1` [Example 243], the Ki was more than 10 µM.

On to `O=C(NO)C1(S(=O)(=O)N2CCN(c3ccc(COCC(F)(F)C(F)(F)F)cc3)CC2)CCOCC1` [Example 70], for which the Ki is more than 10 µM.

Take `CCCCOc1ccc(N2CCN(S(=O)(=O)C3(C(=O)NO)CCN(c4ccc(OC)cc4)CC3)CC2)cc1` [Example 249]: the Ki is more than 10 µM.

Turning to `COCCN1CCC(C(=O)NO)(S(=O)(=O)N2CCN(c3ccccn3)CC2)CC1` [Example 176], the Ki is 1.46 µM.

Turning to `CCCCCCc1ccc(N2CCN(S(=O)(=O)C3(C(=O)NO)CCN(CCOC)CC3)CC2)cc1` [Example 199], the Ki is more than 10 µM.

Regarding `CCCCOc1ccc(N2CCN(S(=O)(=O)C3(C(=O)NO)CCN(c4ccc(OC(F)(F)C(F)F)cc4)CC3)CC2)cc1` [Example 65], the Ki is more than 10 µM.
